pKd: −log10 of the molar value.
Legend:
Assay in all cases: Optical Titration Assay
Details in all cases: pH 7
[1] = molecular target: Bifunctional cytochrome P450/NADPH--P450 reductase [F87V] (Bacillus megaterium, UniProt P14779, F87V)
Procedure: (§1) Dissociation constants (Kd values) for binding of the substrates N-palmitoylglycine (NPG) and omeprazole (OMP) to WT and mutant BM3 heme domains were determined by UVvisible absorption titrations using ~1-4 μM protein in 100mMKPi, pH 7.0, at 25 °C (assay buffer) in 1-cm path length quartz cuvettes and as in our previous studies. Spectra were recorded for substrate-free enzymes and following addition of ligands during substrate titrations (typically 800 to 250 nm).

[2] = molecular target: Bifunctional cytochrome P450/NADPH--P450 reductase [A82F,F87V] (Bacillus megaterium, UniProt P14779, A82F/F87V)
Chain of Bifunctional cytochrome P450/NADPH--P450 reductase [A82F,F87V] (P14779 whole entry A83F/F88V): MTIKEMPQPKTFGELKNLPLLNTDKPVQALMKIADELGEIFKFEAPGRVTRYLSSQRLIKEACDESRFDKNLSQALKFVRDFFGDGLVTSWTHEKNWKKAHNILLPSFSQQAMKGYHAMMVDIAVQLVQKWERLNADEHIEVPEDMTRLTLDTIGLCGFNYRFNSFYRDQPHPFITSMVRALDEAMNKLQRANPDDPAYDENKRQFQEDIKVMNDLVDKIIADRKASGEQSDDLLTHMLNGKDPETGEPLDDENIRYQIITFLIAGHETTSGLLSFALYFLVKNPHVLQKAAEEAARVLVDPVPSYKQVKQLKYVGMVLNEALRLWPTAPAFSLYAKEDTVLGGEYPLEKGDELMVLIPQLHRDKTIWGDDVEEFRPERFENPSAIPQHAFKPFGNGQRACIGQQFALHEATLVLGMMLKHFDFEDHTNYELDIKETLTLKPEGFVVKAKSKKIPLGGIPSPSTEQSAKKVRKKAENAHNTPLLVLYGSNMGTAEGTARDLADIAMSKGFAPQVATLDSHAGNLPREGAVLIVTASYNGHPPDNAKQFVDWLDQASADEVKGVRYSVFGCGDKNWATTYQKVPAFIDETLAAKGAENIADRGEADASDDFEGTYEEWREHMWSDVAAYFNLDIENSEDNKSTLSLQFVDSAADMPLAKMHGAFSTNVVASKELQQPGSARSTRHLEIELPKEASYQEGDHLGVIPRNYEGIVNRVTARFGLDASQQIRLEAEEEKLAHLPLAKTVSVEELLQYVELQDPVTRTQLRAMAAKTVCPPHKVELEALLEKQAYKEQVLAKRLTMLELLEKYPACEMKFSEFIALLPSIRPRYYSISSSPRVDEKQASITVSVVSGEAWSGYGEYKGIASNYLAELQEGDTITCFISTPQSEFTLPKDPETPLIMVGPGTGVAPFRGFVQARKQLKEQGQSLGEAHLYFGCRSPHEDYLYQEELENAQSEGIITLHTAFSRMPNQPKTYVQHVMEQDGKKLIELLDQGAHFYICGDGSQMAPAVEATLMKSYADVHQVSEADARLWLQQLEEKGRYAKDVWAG
Procedure: as §1

[3] = molecular target: Bifunctional cytochrome P450/NADPH--P450 reductase [A82F] (Bacillus megaterium, UniProt P14779, A82F)
Chain of Bifunctional cytochrome P450/NADPH--P450 reductase [A82F] (P14779 whole entry A83F): as the sequence (P14779 whole entry A83F/F88V) above, with V88F counted along it
Procedure: as §1

[4] = molecular target: T1, Bifunctional cytochrome P450/NADPH--P450 reductase (Bacillus megaterium, UniProt P14779)
T1 sequence (P14779 whole entry): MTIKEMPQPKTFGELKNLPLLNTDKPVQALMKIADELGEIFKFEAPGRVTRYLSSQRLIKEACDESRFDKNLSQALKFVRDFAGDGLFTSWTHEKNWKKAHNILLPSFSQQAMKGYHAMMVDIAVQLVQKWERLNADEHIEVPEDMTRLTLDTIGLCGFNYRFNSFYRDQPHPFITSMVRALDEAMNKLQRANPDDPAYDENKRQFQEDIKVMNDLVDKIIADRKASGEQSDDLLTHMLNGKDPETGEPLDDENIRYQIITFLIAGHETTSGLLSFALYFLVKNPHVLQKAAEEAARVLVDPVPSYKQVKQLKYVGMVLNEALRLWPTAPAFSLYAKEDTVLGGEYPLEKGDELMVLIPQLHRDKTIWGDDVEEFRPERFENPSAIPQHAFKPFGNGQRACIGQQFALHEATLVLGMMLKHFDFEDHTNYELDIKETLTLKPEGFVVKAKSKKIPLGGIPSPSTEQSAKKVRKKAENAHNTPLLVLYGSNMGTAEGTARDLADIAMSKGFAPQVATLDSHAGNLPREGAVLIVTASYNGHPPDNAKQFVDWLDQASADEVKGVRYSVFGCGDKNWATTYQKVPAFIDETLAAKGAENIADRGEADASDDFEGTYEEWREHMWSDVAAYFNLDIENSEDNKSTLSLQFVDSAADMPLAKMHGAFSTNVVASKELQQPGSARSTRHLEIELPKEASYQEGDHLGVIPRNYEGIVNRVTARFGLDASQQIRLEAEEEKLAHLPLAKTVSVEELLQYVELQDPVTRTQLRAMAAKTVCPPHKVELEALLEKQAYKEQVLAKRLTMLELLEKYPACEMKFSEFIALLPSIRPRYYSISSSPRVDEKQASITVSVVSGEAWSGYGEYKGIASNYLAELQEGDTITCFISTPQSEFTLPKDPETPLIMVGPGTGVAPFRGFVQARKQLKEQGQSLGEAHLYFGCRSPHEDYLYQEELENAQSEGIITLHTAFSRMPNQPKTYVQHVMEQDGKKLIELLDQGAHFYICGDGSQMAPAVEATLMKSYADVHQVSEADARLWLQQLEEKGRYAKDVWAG
Procedure: as §1

Chain of Bifunctional cytochrome P450/NADPH--P450 reductase [F87V] (P14779 whole entry F88V, the tested form may be a part): as the sequence (P14779 whole entry A83F/F88V) above, with F83A counted along it

Structure (SMILES): COc1ccc2[nH]c([S+]([O-])Cc3ncc(C)c(OC)c3C)nc2c1 (configuration not stated) [H-168/68]
- pKd [1]: 4.31
- pKd [2]: 6.67
- pKd [3]: 5.78

Structure (SMILES): CCCCCCCCCCCCCCCC(=O)NCC(=O)O [N-palmitoylglycine (NPG)]
- pKd [1]: 6.69
- pKd [2]: 8.40
- pKd [4]: 7.09
- pKd [3]: 6.53
